Source: patent US9464113B2, “Anti-heparan sulfate peptides that block herpes simplex virus infection in vivo” (The Board of Trustees of the University of Illinois, priority 2010, dated 2016)
No end group written: not given here.

Key:
[1] = system: HSV-1 glycoproteins (gB, gD, gH-gL) induced membrane fusion; assay: HSV-1 glycoprotein induced cell-to-cell fusion assay, human CF target cells; format: cell-based, herpes simplex virus type-1
Text: CHO-K1 “effector” cells (grown in F-12 Ham, Invitrogen) were co-transfected with plasmids expressing four HSV-1(KOS) glycoproteins: pPEP98 (gB), pPEP99 (gD), pPEP100 (gH), and pPEP101 (gL), along with the plasmid pT7EMCLuc that expresses firefly luciferase gene under transcriptional control of the T7 promoter. Pertel et al., Virology 279:313-324 (2001). Wild-type CHO-K1 cells, which express cell-surface HS but lack functional gD receptors, were transiently transfected with HSV-1 entry receptors. Wild-type CHO-K1 cultured cells expressing HSV-1 entry receptors or naturally susceptible cells (human CF) considered as “target cells” were co-transfected with pCAGT7 that expresses T7 RNA polymerase using chicken actin promoter and CMV enhancer. Tiwari et al., FEBS Letters 581:4468-4472 (2007). Untreated effector cells expressing pT7EMCLuc and HSV-1 essential glycoproteins, and target cells expressing gD receptors transfected with T7 RNA polymerase, were used as positive controls. G2 or control peptide-treated target cells were then co-cultivated (1:1 ratio) for 18 h with effector cells for fusion. Activation of a reporter luciferase gene—as a measure of cell fusion—was examined using reporter lysis assay (Promega) at 24 hr post mixing.
Since G2 was isolated against 3-OS HS, which can mediate viral penetration by promoting membrane fusion (Tiwari et al., J. Gen. Virol. 85:805-809 (2004)), the ability of G2 to block HSV-1 glycoprotein-mediated membrane fusion was tested. Pertel et al., Virology 279:313-324 (2001). The same membrane fusion is used during polykaryocytes formation and cell-to-cell spread. Tiwari et al., FEBS Letters 581:4468-4472 (2007) and Tiwari et al., Biochemical and Biophysical Research Communications 390:382-387 (2009). […]
Control effector cells (T7 polymerase and gD, gH-gL only) (−) were also pre-incubated with G2 for the same duration. […] Membrane fusion as a surrogate for viral spread was detected by monitoring luciferase activity (FIGS. 7A and 7C). Relative luciferase units (RLUs) were determined using a Sirius luminometer (Berthold detection systems). […]

HSV-1(K26GFP) = HSV-1(K26GFP) binding to human CF (microscopy, fluorescence reader, flow cytometry); format: cell-based, herpes simplex virus type-1; conditions: for virus binding by flow cytometry: 60 min pre-treatment, 4° C. (FIG. 6C)
Protocol: Flow cytometry was performed to detect the effect of G2 peptide on GFP-HSV-1 binding to human CF. Monolayers of approximately 5×10^6 CF were pre-treated with G2 peptide for 60 min followed by incubation with GFP-expressing HSV-1 (K26GFP) at 4° C. A control peptide treated and untreated cells were similarly incubated with HSV-1 GFP virions. Uninfected CF were used as background negative control. GFP expression from the viral capsid on cell surface was examined by a flowcytometer (MoFlo).
Cultured CF were pre-incubated with 0.5 mM G2 peptide or control-peptide (cp) and then infected with a GFP-tagged HSV-1(K26GFP) virus. Cells were fixed at 60 min post-infection and stained for F-actin and the nucleus (DAPI). GFP-expressing HSV-1(K26GFP) binding to CF in presence and absence of G2 peptides was examined by fluorescence microscopy (FIG. 6A). CF were grown in collagen coated chamber slides and incubated at room temperature for 60 min with G2 (+) or control Cp (G2 (−)) peptide. This was followed by the incubation of the cells in cold with GFP-expressing HSV-1(K26GFP) for 30 min and washing of unbound virioins with PBS. Cells were fixed, stained with phalloidin for F-actin and DAPI for nuclei and examined by a fluorescence microscope (Leica, SP2). The presence of the virus was shown by detecting GFP.
To examine this effect on a population of 10^5 cells, GFP intensity as an indicator of virus binding, was measured after incubation with the virus in cold and rigorous washing of the cells afterwards (FIG. 6B). Relative virus binding to CF was estimated by fluorescence measurements. Cultured CF were pre-incubated with G2 and control peptide (Cp) for 60-min before ice-cold incubation with GFP-expressing HSV-1 virus for 30 min. Cells were washed 3 times and viruses remaining on cell surfaces were assayed for GFP fluorescent intensity using a fluorescence reader (Tecan).
GFP-expressing HSV-1(K26GFP) intensity as a surrogate for virus binding was quantified in presence G2 or control peptide (abbreviated as C) by flow cytometry (FIG. 6C). The cell/virus incubation was performed as described above. G2 peptides block HSV-1 replication into cultured human corneal fibroblasts (CF) (FIG. 6D). Cultured CF were pre-incubated with G2 or mock-treated (Cp) before infection with HSV-1(K26GFP) virus for 6 h. Viral replications in CF were quantified 0-36 h post-infection by measuring GFP fluorescent intensity using a fluorescence reader (Tecan). The data shown are the means of triplicate measures and are representative of three independent experiments. Asterisks indicate significant difference from other treatments (P<0.01, t test), error bars represent standard deviation (SD).
Primary cultures of human CF pretreated with G2 peptide or control peptide (C) were analyzed for HSV-1(K26GFP) binding. […]

Row | Sequence | blocking of membrane fusion ([1]; statement only, target cells not stated, no data shown) | virus attachment (fluorescence microscopy) (HSV-1(K26GFP); 0.5 mM, 60 min, virus in cold 30 min (FIG. 6A)) | virus binding by flow cytometry (HSV-1(K26GFP)) | relative virus binding (GFP fluorescent intensity) (HSV-1(K26GFP); fluorescence reader (FIG. 6B)) | blocking of membrane fusion (luciferase activity) ([1]; human CF (FIG. 7A)) | syncytia (polykaryocyte) formation, Giemsa staining ([1]; human CF (FIG. 7B))
1 | LRSRTKIIRIRH [G1, LRSRTKIIRIRH] | does not appear to block membrane fusion |  |  |  |  | 
2 | MPRRRRIRRRQK [G2, MPRRRRIRRRQK] |  | resisted virus attachment | virus failed to bind | binding was significantly higher in Cp-treated compared to G2 peptide treated cells | very effective in blocking membrane fusion | loss of syncytia formation
3 | RVCGSIGKEVLG [Cp, reference compound] |  |  | low level inhibitory activity |  |  | 
